Results: patent US8399452B2, “Dibenzo[b,f][1,4]oxazepin-11-yl-N-hydroxybenzamides as HDAC inhibitors” (Methylgene Inc., priority 2006, dated 2013)

Biological target: histone deacetylase (HDAC Enzyme)
Assay: Inhibition of Histone Deacetylase Enzymatic Activity (Boc-Lys(Ac)-AMC, Fluor-de-Lys developer)
Type: biochemical
Conditions: Table 9; read-out: HDAC Inhibition (IC50 μM) HDAC Enzyme
Experimental: The following protocol is used to assay the compounds of the invention.
The mixture is pre-incubated for 5 minutes at room temperature. The reaction is started by bringing the temperature to 37° C. and adding 16 μl substrate. Total reaction volume is 50 μl.
In the Tables 8, 9 and 10, A≦[…]<B≦0.1 μM; 0.1 μM<C≦1 μM; and 1 μM<D≦10 μM.

IC50 | Structure (SMILES)
< 0.05 µM | O=C(NO)c1cnc(N2C[C@@H]3C[C@H]2CN3c2cccc(S(F)(F)(F)(F)F)c2)nc1
0.1 to 1 µM | O=C(NO)c1cnc(N2CC3CC2CO3)nc1 (centres unmarked) [2-(2-oxa-5-azabicyclo[2.2.1]heptan-5-yl)-N-hydroxypyrimidine-5-carboxamide]
< 0.05 µM | N#Cc1cccc(N2CC3CC2CN3c2ncc(C(=O)NO)cn2)c1 (centres unmarked) [2-(5-(3-cyanophenyl)-2,5-diazabicyclo[2.2.1]heptan-2-yl)-N-hydroxypyrimidine-5-carboxamide]
< 0.05 µM | O=C(NO)c1cnc(N2C[C@@H]3C[C@H]2CN3c2ccc3c(c2)OC(F)(F)O3)nc1 [2-((1S,4S)-5-(2,2-difluorobenzo[d][1,3]dioxol-5-yl)-2,5-diazabicyclo[2.2.1]heptan-2-yl)-N-hydroxypyrimidine-5-carboxamide]
0.05 to 0.1 µM | O=C(NO)c1cnc(N2C[C@@H]3C[C@H]2CN3C(=O)C(c2ccccc2)c2ccccc2)nc1 [2-((1S,4S)-5-(2,2-diphenylacetyl)-2,5-diazabicyclo[2.2.1]heptan-2-yl)-N-hydroxypyrimidine-5-carboxamide]
< 0.05 µM | O=C(NO)c1cnc(N2C[C@@H]3C[C@H]2CN3c2ccc(C(F)(F)F)cc2F)nc1 [2-((1S,4S)-5-(2-fluoro-4-(trifluoromethyl)phenyl)-2,5-diazabicyclo[2.2.1]heptan-2-yl)-N-hydroxypyrimidine-5-carboxamide]
< 0.05 µM | O=C(NO)c1cnc(N2C[C@@H]3C[C@H]2CN3c2cc(C(F)(F)F)cc(C(F)(F)F)c2)nc1 [2-((1S,4S)-5-(3,5-bis(trifluoromethyl)phenyl)-2,5-diazabicyclo[2.2.1]heptan-2-yl)-N-hydroxypyrimidine-5-carboxamide]
< 0.05 µM | CN(C)Cc1cccc(N2C[C@@H]3C[C@H]2CN3c2ncc(C(=O)NO)cn2)c1 [2-((1S,4S)-5-(3-((dimethylamino)methyl)phenyl)-2,5-diazabicyclo[2.2.1]heptan-2-yl)-N-hydroxypyrimidine-5-carboxamide]
< 0.05 µM | O=C(NO)c1cnc(N2C[C@@H]3C[C@H]2CN3c2cccc(OC(F)F)c2)nc1 [2-((1S,4S)-5-(3-(difluoromethoxy)phenyl)-2,5-diazabicyclo[2.2.1]heptan-2-yl)-N-hydroxypyrimidine-5-carboxamide]
< 0.05 µM | CN(C)C(=O)c1cccc(N2C[C@@H]3C[C@H]2CN3c2ncc(C(=O)NO)cn2)c1 [2-((1S,4S)-5-(3-(dimethylcarbamoyl)phenyl)-2,5-diazabicyclo[2.2.1]heptan-2-yl)-N-hydroxypyrimidine-5-carboxamide]
< 0.05 µM | O=C(NO)c1cnc(N2C[C@@H]3C[C@H]2CN3c2cccc(F)c2)nc1 [2-((1S,4S)-5-(3-fluorophenyl)-2,5-diazabicyclo[2.2.1]heptan-2-yl)-N-hydroxypyrimidine-5-carboxamide]
< 0.05 µM | O=C(NO)c1cnc(N2C[C@@H]3C[C@H]2CN3c2ccc(Cl)cc2)nc1 [2-((1S,4S)-5-(4-chlorophenyl)-2,5-diazabicyclo[2.2.1]heptan-2-yl)-N-hydroxypyrimidine-5-carboxamide]
0.05 to 0.1 µM | O=C(NO)c1cnc(N2C[C@@H]3C[C@H]2CN3c2ccc(F)cc2)nc1 [2-((1S,4S)-5-(4-fluorophenyl)-2,5-diazabicyclo[2.2.1]heptan-2-yl)-N-hydroxypyrimidine-5-carboxamide]
< 0.05 µM | O=C(NO)c1cnc(N2C[C@@H]3C[C@H]2CN3c2cccc3nonc23)nc1 [2-((1S,4S)-5-(benzo[c][1,2,5]oxadiazol-4-yl)-2,5-diazabicyclo[2.2.1]heptan-2-yl)-N-hydroxypyrimidine-5-carboxamide]
< 0.05 µM | O=C(NO)c1cnc(N2C[C@@H]3C[C@H]2CN3c2ccc3nonc3c2)nc1 [2-((1S,4S)-5-(benzo[c][1,2,5]oxadiazol-5-yl)-2,5-diazabicyclo[2.2.1]heptan-2-yl)-N-hydroxypyrimidine-5-carboxamide]
< 0.05 µM | O=C(NO)c1cnc(N2C[C@@H]3C[C@H]2CN3c2ccc3nsnc3c2)nc1 [2-((1S,4S)-5-(benzo[c][1,2,5]thiadiazol-5-yl)-2,5-diazabicyclo[2.2.1]heptan-2-yl)-N-hydroxypyrimidine-5-carboxamide]
< 0.05 µM | O=C(NO)c1cnc(N2C[C@@H]3C[C@H]2CN3c2ccc3c(c2)OCO3)nc1 [2-((1S,4S)-5-(benzo[d][1,3]dioxol-5-yl)-2,5-diazabicyclo[2.2.1]heptan-2-yl)-N-hydroxypyrimidine-5-carboxamide]
< 0.05 µM | O=C(NO)c1cnc(N2C[C@@H]3C[C@H]2CN3c2noc3ccccc23)nc1 [2-((1S,4S)-5-(benzo[d]isoxazol-3-yl)-2,5-diazabicyclo[2.2.1]heptan-2-yl)-N-hydroxypyrimidine-5-carboxamide]
< 0.05 µM | O=C(NO)c1cnc(N2C[C@@H]3C[C@H]2CN3C(c2ccccc2)c2ccccc2)nc1 [2-((1S,4S)-5-benzhydryl-2,5-diazabicyclo[2.2.1]heptan-2-yl)-N-hydroxypyrimidine-5-carboxamide]
< 0.05 µM | O=C(NO)c1cnc(N2C[C@@H]3C[C@H]2CN3C(=O)c2ccccc2)nc1 [2-((1S,4S)-5-benzoyl-2,5-diazabicyclo[2.2.1]heptan-2-yl)-N-hydroxypyrimidine-5-carboxamide]

Structure (SMILES) | IC50
O=C(NO)c1cnc(N2C[C@@H]3C[C@H]2CN3)nc1 [2-((1S,4S)-2,5-diazabicyclo[2.2.1]heptan-2-yl)-N-hydroxypyrimidine-5-carboxamide] | 0.1 to 1 µM
O=C(NO)c1cnc(N2C[C@@H]3C[C@H]2CN3Cc2ccccc2)nc1 [2-((1S,4S)-5-benzyl-2,5-diazabicyclo[2.2.1]heptan-2-yl)-N-hydroxypyrimidine-5-carboxamide] | 0.1 to 1 µM

Same assay, conditions: Table 10; read-out: HDAC Inhibition (IC50 μM) HDAC Enzyme

IC50 | Structure (SMILES)
< 0.05 µM | O=C(NO)c1cnc(N2CCCN(c3ncc(C(F)(F)F)cc3Cl)CC2)nc1
0.1 to 1 µM | O=C(NO)c1cnc(N2C[C@@H]3C[C@]3(c3ccc(Cl)c(Cl)c3)C2)nc1
1 to 10 µM | O=C(NO)c1ccc(OCCN2C(=O)c3ccccc3Oc3ccccc32)cc1Cl
0.05 to 0.1 µM | O=C(NO)c1ccc(OCCN2C(=O)c3ccccc3Oc3ccccc32)cc1F
0.1 to 1 µM | O=C(CCCCCN1C(=O)c2ccccc2N(C2CC2)c2ccccc21)NO
0.1 to 1 µM | O=C(CCCCCCN1C(=O)c2ccccc2N(C2CC2)c2ccccc21)NO
0.1 to 1 µM | O=C(C=C1c2ccccc2C=Cc2ccccc21)NO
1 to 10 µM | O=C(C=C1c2ccccc2CCc2ccccc21)NO
0.1 to 1 µM | O=C(CCCCCCCON=C1c2ccccc2CCc2ccccc21)NO
0.1 to 1 µM | O=C(CCCCCCON=C1c2ccccc2CCc2ccccc21)NO
0.1 to 1 µM | O=C(CCCCCON=C1c2ccccc2CCc2ccccc21)NO
0.1 to 1 µM | O=C(CCCON=C1c2ccccc2CCc2ccccc21)NO
< 0.05 µM | O=C(NO)c1ccc(CNC2c3ccccc3CCc3ccccc32)cc1
0.1 to 1 µM | O=C(NO)c1ccc(CON=C2c3ccccc3CCc3ccccc32)cc1
0.05 to 0.1 µM | O=C(/C=C/c1ccc(CNC2c3ccccc3CCc3ccccc32)cc1)NO
0.1 to 1 µM | O=C(NO)c1ccc(ON=C2c3ccccc3CCc3ccccc32)cc1
< 0.05 µM | O=C(NO)c1cnc(NC2c3ccccc3CCc3ccccc32)nc1
0.1 to 1 µM | O=C(CCCCCON=c1c2ccccc2ccc2ccccc12)NO
0.1 to 1 µM | O=C(CCCCON=C1c2ccccc2CCc2ccccc21)NO
0.1 to 1 µM | O=C(NO)c1cnc(N2CCN(C3c4ccccc4CCc4ccccc43)CC2)nc1
< 0.05 µM | O=C(NO)c1cnc(NCC2c3ccccc3CCc3ccccc32)nc1

IC50 | Structure (SMILES)
< 0.05 µM | CN(c1ncc(C(=O)NO)cn1)C1c2ccccc2CCc2ccccc21
< 0.05 µM | O=C(NO)c1cnc(NC2c3ccccc3C=Cc3ccccc32)nc1
0.1 to 1 µM | O=C(CCCCCCN1c2ccccc2Oc2ccccc2S1(=O)=O)NO
0.1 to 1 µM | O=C(CCCCCCC(=O)NC1c2ccccc2C=Cc2ccccc21)NO
0.1 to 1 µM | O=C(CCCCCC(=O)NC1c2ccccc2C=Cc2ccccc21)NO
< 0.05 µM | O=C(NO)c1cnc(NC2c3ccccc3C=C(F)c3ccccc32)nc1 (centres unmarked)
< 0.05 µM | O=C(NO)c1ccc(NC2c3ccccc3CCc3ccccc32)nc1
0.1 to 1 µM | O=C(NO)c1cnc(C2c3ccccc3C=Cc3ccccc32)nc1
0.1 to 1 µM | O=C(NO)c1cn2c(n1)sc1ccccc12
0.1 to 1 µM | O=C(NO)c1ccc(COC2c3ccccc3CCc3ccccc32)cc1
0.1 to 1 µM | O=C(NO)c1cccc(COC2c3ccccc3CCc3ccccc32)c1
0.1 to 1 µM | O=C(NO)c1cccc(CNC2c3ccccc3CCc3ccccc32)c1
0.1 to 1 µM | O=C(Cc1ccc(CN2C(=O)c3ccccc3Oc3ccccc32)cc1)NO
0.1 to 1 µM | O=C(NO)c1cnc(N2C[C@H]3C[C@@]3(c3cccc(C(F)(F)F)c3)C2)nc1
0.1 to 1 µM | O=C(NO)c1cnc(N2C[C@H]3C[C@@]3(c3ccc(C(F)(F)F)cc3)C2)nc1
0.1 to 1 µM | O=C(CCn1cc(CN2C(=O)c3ccccc3Oc3ccccc32)nn1)NO
< 0.05 µM | O=C(/C=C/c1ccc(CN2C(=O)c3ccccc3Oc3ccccc32)cc1)NO
0.05 to 0.1 µM | O=C(NO)c1ccc(/C=C/CN2C(=O)c3ccccc3Oc3ccccc32)cc1
0.1 to 1 µM | O=C(NO)c1cnc(NC2c3ccccc3-c3ccccc32)nc1 [2-(9H-fluoren-9-ylamino)-N-hydroxypyrimidine-5-carboxamide]
0.1 to 1 µM | O=C(NO)c1cnc(N2C[C@H]3C[C@@]3(c3ccc(Cl)c(Cl)c3)C2)nc1 [2-((1R,5S)-1-(3,4-dichlorophenyl)-3-azabicyclo[3.1.0]hexan-3-yl)-N-hydroxypyrimidine-5-carboxamide]

Structure (SMILES) | IC50
O=C(/C=C/c1ccc(CN2C(=O)CN=C(c3ccccc3)c3ccccc32)cc1)NO | 0.05 to 0.1 µM

Same assay, conditions: read-out: HDAC Inhibtion (IC50 μM) HDAC Enzyme

IC50 | Structure (SMILES)
1 to 10 µM | O=C(NO)c1ccc(C2=Nc3ccccc3S(=O)(=O)c3ccccc32)cc1
0.1 to 1 µM | O=C(NO)c1ccc(C2=Nc3ccccc3[S+]([O-])c3ccccc32)cc1 (centres unmarked)
0.1 to 1 µM | O=C(NO)c1ccc(C2=Nc3cncnc3N3CCc4cccc2c43)cc1
0.1 to 1 µM | CN1CCN(C2=Nc3cc(C(=O)NO)ccc3Oc3ccccc32)CC1
